# Experimental data as given in PubChem BioAssay (NCI).
#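 Grown in 96-well plates, cells were treated for 48 hours with each compound at five concentrations. Insufficient inhibition: endpoint recorded as highest concentration tested. GI50: concentration for 50% inhibition of growth. TGI marks complete inhibition of growth.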 Activity calls are given as the source filed them. Rule as the data show it: active = GI50 below about 0.43 µM; inactive = the rest.
# Columns and labels:
# Assay in all cases: inhibition of tumour cell growth, NCI panel, 48 h
# [1] = tested on: DU-145 prostate
# [2] = tested on: UACC-257 melanoma
# [3] = tested on: HS 578T breast
# [4] = tested on: OVCAR-8 ovarian
# [5] = tested on: ACHN renal
# [6] = tested on: CCRF-CEM leukemia
# [7] = tested on: SF-268 CNS
# [8] = tested on: HT29 colon
# [9] = tested on: NCI-H460 lung
# [10] = tested on: HOP-92 NSCLC
# [11] = tested on: NCI/ADR-RES ovarian
# [12] = tested on: MCF7 breast
# [13] = tested on: SK-OV-3 ovarian
# [14] = tested on: UO-31 renal
# [15] = tested on: A498 renal
# [16] = tested on: TK-10 renal
# [17] = tested on: NCI-H522 lung
# [18] = tested on: MOLT-4 leukemia
# [19] = tested on: HL-60(TB) leukemia
# [20] = tested on: EKVX NSCLC
# [21] = tested on: OVCAR-3 ovarian
# [22] = tested on: A549 NSCLC
# [23] = tested on: UACC-62 melanoma
# [24] = tested on: NCI-H226 lung
# [25] = tested on: SK-MEL-28 melanoma
# [26] = tested on: SK-MEL-2 melanoma
# [27] = tested on: SF-295 CNS
# [28] = tested on: M14 melanoma
# [29] = tested on: HOP-62 NSCLC
# [30] = tested on: OVCAR-5 ovarian
# [31] = tested on: T-47D breast
# [32] = tested on: KM12 colon
# [33] = tested on: SW-620 colon
# [34] = tested on: COLO 205 colon
# [35] = tested on: RPMI-8226 leukemia
# [36] = tested on: SF-539 CNS
# [37] = tested on: MDA-MB-435
# [38] = tested on: PC-3 prostate
# [39] = tested on: MALME-3M melanoma
# [40] = tested on: IGROV1 ovarian
# [41] = tested on: OVCAR-4 ovarian
# [42] = tested on: RXF 393 renal
# [43] = tested on: SK-MEL-5 melanoma
# [44] = tested on: 786-0 renal
# [45] = tested on: SNB-19 CNS
# [46] = tested on: NCI-H23 lung
# [47] = tested on: CAKI-1 renal
# [48] = tested on: SN12C renal
# [49] = tested on: MDA-MB-231 breast
# [50] = tested on: HCT-15 colon
# [51] = tested on: U251 CNS
# [52] = tested on: SNB-75 CNS
# [53] = tested on: HCT-116 colon
# [54] = tested on: BT-549 breast
# [55] = tested on: LOX IMVI melanoma
# [56] = tested on: K-562 leukemia
# [57] = tested on: HCC-2998 colon
smiles,measurement,setting,value
N=C(N)c1ccc(-c2ccc(-c3cncc4ccccc34)s2)s1,GI50,[1],1.55 µM
same,TGI,[1],3 µM
same,GI50,[2],2.47 µM
same,TGI,[2],5.23 µM
same,GI50,[3],2.22 µM
same,TGI,[3],4.75 µM
same,GI50,[4],1.83 µM
same,TGI,[4],4.4 µM
O=C(c1ccccc1)c1c(C(F)(F)F)n([O-])c2cc(F)c(F)cc2[n+]1=O,TGI,[5],0.232 µM
same,GI50,[6],8.72 µM
same,TGI,[6],> 100 µM
same,TGI,[7],2.45 µM
same,TGI,[8],> 100 µM
same,TGI,[9],8.53 µM
same,TGI,[10],0.324 µM
same,TGI,[11],1.63 µM
same,TGI,[12],1.71 µM
same,TGI,[13],> 49.5 µM
same,TGI,[14],2.4 µM
same,TGI,[15],7.19 µM
same,TGI,[16],0.816 µM
same,TGI,[17],> 7.96 µM
same,TGI,[18],1.97 µM
same,TGI,[19],1.55 µM
same,TGI,[1],8.71 µM
same,TGI,[20],5 µM
same,TGI,[21],1.16 µM
same,TGI,[22],8.34 µM
same,TGI,[23],5.08 µM
same,TGI,[24],5.69 µM
same,TGI,[25],> 100 µM
same,TGI,[26],4.44 µM
same,TGI,[27],5.66 µM
same,TGI,[28],1.49 µM
same,TGI,[2],3.76 µM
same,TGI,[29],2.26 µM
same,TGI,[30],2.98 µM
same,TGI,[31],> 36.7 µM
same,TGI,[32],3.9 µM
same,TGI,[33],> 100 µM
same,TGI,[34],> 69.6 µM
same,TGI,[35],> 100 µM
same,TGI,[36],1.67 µM
same,TGI,[37],4.14 µM
same,TGI,[3],2.48 µM
same,TGI,[38],2.44 µM
same,TGI,[39],0.42 µM
same,TGI,[40],6.79 µM
same,TGI,[41],> 100 µM
same,TGI,[42],2.22 µM
same,TGI,[43],3.33 µM
same,TGI,[44],1.03 µM
same,TGI,[45],10.8 µM
same,TGI,[4],1.15 µM
same,TGI,[46],0.789 µM
same,TGI,[47],1.76 µM
O=P(O)(O)CN1CCNCCN(CP(=O)(O)O)CCN(CP(=O)(O)O)CCNCC1,outcome,[5],inactive
same,outcome,[6],inactive
same,outcome,[7],inactive
same,GI50,[8],49000 µM
same,outcome,[10],inactive
same,outcome,[11],inactive
same,GI50,[12],99900 µM
same,outcome,[13],inactive
same,outcome,[14],inactive
same,outcome,[15],inactive
same,outcome,[16],inactive
same,outcome,[17],inactive
same,outcome,[18],inactive
same,outcome,[48],inactive
same,GI50,[19],48900 µM
same,TGI,[19],55.8 µM
same,outcome,[1],inactive
same,outcome,[20],inactive
same,outcome,[49],inactive
same,outcome,[23],inactive
same,outcome,[24],inactive
same,outcome,[25],inactive
same,outcome,[50],inactive
same,outcome,[51],inactive
same,outcome,[27],inactive
same,outcome,[28],inactive
same,outcome,[2],inactive
same,outcome,[29],inactive
same,outcome,[30],inactive
same,outcome,[33],inactive
same,outcome,[36],inactive
same,outcome,[37],inactive
same,outcome,[3],inactive
same,outcome,[52],inactive
same,outcome,[38],inactive
same,TGI,[39],44.1 µM
same,outcome,[39],inactive
same,outcome,[41],inactive
same,outcome,[42],inactive
same,outcome,[44],inactive
same,outcome,[45],inactive
same,outcome,[46],inactive
same,TGI,[47],86100 µM
COc1ccc(-n2cc(-c3cc(OC)c(OC)c(OC)c3)[nH]c2=S)cc1Cl,GI50,[5],44.3 µM
same,TGI,[5],> 100 µM
same,GI50,[6],0.6 µM
same,TGI,[6],> 100 µM
same,GI50,[7],18.3 µM
same,TGI,[7],50.3 µM
same,GI50,[8],> 100 µM
same,TGI,[8],> 100 µM
same,GI50,[9],18.9 µM
same,TGI,[9],> 100 µM
same,GI50,[53],24.4 µM
same,TGI,[53],> 100 µM
same,GI50,[10],14 µM
same,TGI,[10],33 µM
same,GI50,[11],27.5 µM
same,TGI,[11],> 100 µM
same,GI50,[12],68 µM
same,TGI,[12],> 100 µM
same,GI50,[13],17 µM
same,TGI,[13],48.3 µM
same,GI50,[14],38.6 µM
same,TGI,[14],> 100 µM
same,GI50,[16],17.2 µM
same,TGI,[16],66.7 µM
same,GI50,[17],> 100 µM
same,TGI,[17],> 100 µM
same,GI50,[18],> 100 µM
same,TGI,[18],> 100 µM
same,GI50,[48],46.7 µM
same,TGI,[48],> 100 µM
same,GI50,[19],> 100 µM
same,TGI,[19],> 100 µM
same,GI50,[1],35.7 µM
same,TGI,[1],> 100 µM
same,GI50,[20],37.3 µM
same,TGI,[20],> 100 µM
same,GI50,[21],26.1 µM
same,TGI,[21],> 100 µM
same,GI50,[49],7.7 µM
same,TGI,[49],49.8 µM
same,GI50,[22],65.5 µM
same,TGI,[22],> 100 µM
same,GI50,[23],> 100 µM
same,TGI,[23],> 100 µM
same,GI50,[54],10.3 µM
same,TGI,[54],31.3 µM
same,GI50,[24],27.1 µM
same,TGI,[24],> 100 µM
same,GI50,[25],63 µM
same,TGI,[25],> 100 µM
same,GI50,[26],> 100 µM
same,TGI,[26],> 100 µM
same,GI50,[50],> 100 µM
same,TGI,[50],> 100 µM
same,GI50,[51],20 µM
same,TGI,[51],50.7 µM
same,GI50,[27],43 µM
same,TGI,[27],> 100 µM
same,GI50,[2],> 100 µM
same,TGI,[2],> 100 µM
same,GI50,[55],6.12 µM
same,TGI,[55],> 100 µM
same,GI50,[29],22.1 µM
same,TGI,[29],52.8 µM
same,GI50,[30],28.3 µM
same,TGI,[30],> 100 µM
same,GI50,[31],29 µM
same,TGI,[31],> 100 µM
same,GI50,[32],> 100 µM
same,TGI,[32],> 100 µM
same,GI50,[33],> 100 µM
same,TGI,[33],> 100 µM
same,GI50,[34],70.8 µM
same,TGI,[34],> 100 µM
same,GI50,[35],5.14 µM
same,TGI,[35],> 100 µM
same,GI50,[36],18.4 µM
same,TGI,[36],48.8 µM
same,GI50,[56],> 100 µM
same,TGI,[56],> 100 µM
same,GI50,[37],> 100 µM
same,TGI,[37],> 100 µM
same,GI50,[3],17.5 µM
same,TGI,[3],60 µM
same,GI50,[52],18.6 µM
same,TGI,[52],48.7 µM
same,GI50,[38],54.6 µM
same,TGI,[38],> 100 µM
same,GI50,[39],40.1 µM
same,TGI,[39],> 100 µM
same,GI50,[40],25.6 µM
same,TGI,[40],> 100 µM
same,GI50,[41],27.2 µM
same,TGI,[41],> 100 µM
same,GI50,[42],17.6 µM
same,TGI,[42],> 100 µM
same,GI50,[57],39.7 µM
same,TGI,[57],> 100 µM
same,GI50,[43],27.2 µM
same,TGI,[43],> 100 µM
same,GI50,[44],23.4 µM
same,TGI,[44],54.5 µM
same,GI50,[45],19.5 µM
same,TGI,[45],58.4 µM
same,GI50,[4],50.2 µM
same,TGI,[4],> 100 µM
same,GI50,[46],46.4 µM
same,TGI,[46],> 100 µM
same,GI50,[47],4.86 µM
same,TGI,[47],33.7 µM
